System: intact WT mouse hearts
Assay: Cardiac function in intact WT mouse heart preparation
Procedure: Following injection of heparin via tail vein (500 U/kg, iv) and anesthetization with nembutal (125 mg/kg for rats and 150 mg/kg for mice, ip) intraperitoneally, heart with all major vessels and lungs attached were excised. The aorta was then cannulated with a 20-gauge catheter, positioned about 2 mm above the coronary ostia. For the Langendorff method, a water-filled latex balloon (size #3) was inserted into the lumen of the left ventricle via the left atrium. The distal end of the balloon attached catheter was connected to a pressure transducer for measurement of intraventricular pressure and ±dP/dt. The balloon was inflated to a constantly held diastolic pressure of 5-7 mmHg. […]
For the working heart model, a column of KHS buffer produced a constant hydrostatic pressure of 65 mmHg (for rat) or 55 mmHg (for mice). […] Aortic flow was the amount of perfusate exiting the aortic cannula measured in […]. […]
The pressure recordings were channeled from amplifiers which had been pre-calibrated by a transducer simulator/calibrator (Ken Scientific Corp., Litchfield, Conn.). […] Data were analyzed by computer software (WorkBench for Windows+, Kent Scientific Corp) designed for an IBM-compatible computer (Dell). […] Data obtained with and without drug were analyzed by paired t test for possible statistically significant differences. […]

Nc1nc(Cl)nc2c1ncn2C1[C@H]2C[C@@]2(COP(=O)(O)O)[C@@H](O)[C@H]1O (stereo partly drawn) [MRS2339, (1′S,2′R,3′S,4′R,5′S)-4-(6-amino-2-chloro-9H-purin-9-yl)-1-[phosphoryloxymethyl]bicyclo[3.1.0]hexane-2,3-diol]
+dP/dt: increased
